Laboratory results as given in patent US7951806B2, “Plasminogen activator inhibitor-1 inhibitor” (Renascience Co., Ltd., priority 2007, dated 2011).
Marks after values point to notes of the source that are not given here.

Tests used:
PAI-1 [1] = biological target: T1, PAI-1 (Homo sapiens, UniProt P05121); test: Fibrinolytic Action Assay (fibrin plate, PAI-1 + t-PA + test compound); type: biochemical; conditions: mixture of PAI-1, t-PA and test compound, 18 hours at room temperature
T1 construct: purchased Molecular Innovations Inc., USA (PAI-1); American Diagnostica, Inc., USA (t-PA)
Method: The compounds a and b were evaluated for fibrinolytic action in accordance with the method disclosed in the document (Matsuo, O. et al., Haemostasis 16, 43-50 (1986)).
More specifically, an aqueous solution (25 mM barbital sodium, 50 mM NaCl, and 25 mM CaCl2) containing a concentration of 1.5 mg/ml of fibrinogen (product of Organon Teknica) was added on a 9 cm-plate to thrombin (10NIH U/ml: product of Mochida Pharmaceutical Co., Ltd.) dissolved in a 0.2 ml physiological saline, and the mixture was allowed to stand for 2 hours at room temperature. Using this mixture, fibrinolysis assay was conducted.
Namely, a mixture of PAI-1, t-PA and a test compound were dropped onto the above-mentioned plate, and incubated for 18 hours at room temperature. Fibrinolysis due to the plasminogen activation was assayed in terms of the lysed area on the plate.

PAI-1 [2] = biological target: T1, PAI-1; test: PAI-1 Inhibitory Activity Assay (Reference Test Example 1 (1)); type: biochemical; conditions: 35 μM and 50 μM; FIG. 14
Method: The compounds a and b (test compounds) were evaluated for inhibitory action on human PAI-1 (product of Molecular Innovations Inc., USA, hereinafter referred to the same). More specifically, human PAI-1 was added to a 0.1% Tween 80-containing 100 mM Tris-HCl (pH 8) solution each containing the above compound respectively in a given concentration (20, 35, 50 and 100 μM), and incubated at 37° C. for 15 minutes. Subsequently, added thereto was human tissue plasminogen activator (t-PA) (product of American Diagnostica, Inc., USA, hereinafter referred to the same), adjusted to […], and further incubated at 37° C. for 15 minutes. Then, 1.25 mM of S-2288 synthesized substrate (product of Chromogenix, Italy, hereinafter referred to as the same), a chromogenic substrate, was added thereto. The final mixed solution contained 100 mM Tris-HCl (pH 8), 30 mM NaCl, 1% DMSO, 0.1% Tween […], 9.8 nM t-PA, 1 mM S-2288 and the test compound a or b (20, 35, 50 or 100 μM).
Free radical p-nitroanilide removed from the chromogenic substrate (S-2288) by t-PA action was measured using a spectrophotometer at an absorbance of 405 nm, every 5 minutes, for 30 minutes. […]

plasma PAI-1 = biological target: T2, plasma PAI-1 (Mus musculus, UniProt P22777); test: Plasma PAI-1 activity in mice with bleomycin-induced pulmonary fibrosis; type: in vivo
T2 construct: from tissue; host or cells: mouse plasma (C57BL/6, male)
T2 sequence (P22777 23-402): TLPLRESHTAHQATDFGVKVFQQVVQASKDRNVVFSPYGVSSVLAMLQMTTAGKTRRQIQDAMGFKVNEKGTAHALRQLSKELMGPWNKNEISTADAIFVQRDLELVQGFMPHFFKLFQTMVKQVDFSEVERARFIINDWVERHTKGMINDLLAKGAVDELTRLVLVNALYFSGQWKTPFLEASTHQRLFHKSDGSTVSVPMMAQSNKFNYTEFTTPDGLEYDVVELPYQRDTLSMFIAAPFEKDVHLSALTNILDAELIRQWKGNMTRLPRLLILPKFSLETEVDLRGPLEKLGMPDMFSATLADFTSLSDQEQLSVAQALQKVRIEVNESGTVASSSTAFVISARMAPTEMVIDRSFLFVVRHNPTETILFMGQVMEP
Method: (§1) A C57BL/6 mouse (male, body weight 19 to 21 g) was intraperitoneally anesthetized with pentobarbital, and an incision was made on the cervical organ. Ten mice were used as controls. The control mice (n=10) were endotracheally administered with bleomycin (product of Nippon Kayaku Co., Ltd.) (1.5 U/kg), lysed in physiological saline, twice a day for 14 days. On the other hand, the test mice were subjected to forcible oral administration with the compound b (200 mg/kg), suspended in a 0.5% carboxymethyl cellulose aqueous solution, twice a day for 14 days, in addition to the above endotracheal administration. Then, the lung tissues taken from these control mice and the test mice were analyzed, and further assayed for hydroxyproline levels. The hydroxyproline levels in the lung tissues were assayed in terms of the level in the hydrolysate of the lung tissues as described in the method of Kivirikko et al (Anal. Biochem. 19, 249-255 (1967)). Pulmonary fibrosis levels (severity) were scored from 0 to 8, based on the method of Ashcort et al (J. Clin. Pathol. 41, 467-470, (1988)). Further, the control mice and test mice were assayed for plasma PAI-1 activity (ng/ml). The results of lung tissue analysis were shown in FIG. 15 (a represents fibrosis score and b is a set of histological stain images).

[3] = tested on: bleomycin-induced pulmonary fibrosis; test: Effects on bleomycin-induced pulmonary fibrosis (mouse model); type: in vivo
Method: as §1

[4] = C57BL/6 mice, bleomycin, 200 mg/kg p.o. twice/day for 14 days in 0.5% CMC, n=10, mean±SE
[5] = versus elevation by bleomycin, 200 mg/kg p.o. twice a day

T1 sequence (P05121 24-402): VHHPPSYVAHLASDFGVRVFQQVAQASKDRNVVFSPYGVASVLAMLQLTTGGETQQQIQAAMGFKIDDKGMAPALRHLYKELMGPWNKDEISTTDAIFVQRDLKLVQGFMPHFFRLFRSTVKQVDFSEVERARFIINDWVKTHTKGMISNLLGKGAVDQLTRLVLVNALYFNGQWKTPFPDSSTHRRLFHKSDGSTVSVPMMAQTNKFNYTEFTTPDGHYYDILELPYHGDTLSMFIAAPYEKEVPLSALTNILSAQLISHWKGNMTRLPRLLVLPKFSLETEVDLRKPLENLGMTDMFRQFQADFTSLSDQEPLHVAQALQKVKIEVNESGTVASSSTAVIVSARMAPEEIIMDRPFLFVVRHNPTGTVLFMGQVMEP

Structure (SMILES) | fibrinolysis (lysed area on the plate) (PAI-1 [1]) | PAI-1 activity inhibitory action compared with tiplaxtinin (PAI-1 [2]) | Plasma PAI-1 Activity (plasma PAI-1; [4]) | plasma PAI-1 activity (in words) (plasma PAI-1; [5]) | Hydroxyproline Level in Lung Tissue [3, 4] | fibrosis score ([3]; scored from 0 to 8 (Ashcroft), bleomycin mice, 200 mg/kg p.o. twice a day for 14 days, FIG. 15) | hydroxyproline level in the lung tissues (in words) [3, 5]
CCC(CC(=O)Nc1scc(-c2ccccc2)c1C(=O)O)C(=O)Nc1scc(-c2ccccc2)c1C(=O)O (stereo not drawn) [compound a, 2-[3-(3′-Carboxy-4′-phenylthiophen-2′-ylcarbamoyl)-pentanoylamino]-4-phenylthiophen-3-carboxylic acid] | inhibit the fibrinolysis suppression caused by PAI-1 | higher PAI-1 activity inhibitory action at concentrations of 35 μM and 50 μM than tiplaxtinin |  |  |  |  | 
CCC(CC(=O)Nc1scc(-c2cccs2)c1C(=O)O)C(=O)Nc1scc(-c2cccs2)c1C(=O)O (stereo not drawn) [compound b, 2-[3-(3′-carboxy-4′-thienylthiophen-2′-ylcarbamoyl)-pentanoylamino]-4-thienylthiophen-3-carboxylic acid] | inhibit the fibrinolysis suppression caused by PAI-1 | higher PAI-1 activity inhibitory action at concentrations of 35 μM and 50 μM than tiplaxtinin | 1.2 ± 0.1^b ng/ml | significantly decreases | 204.2 ± 9.5^b μg/lung | 2.9±0.42 | significantly decreases
